Data from publication PMC10643420, “A glutamate-gated chloride channel as the mite-specific target-site of dicofol and other diphenylcarbinol acaricides” (Communications Biology, 2023).

Legend:
Assay type in all cases: cell-based
[1] = target: T1, TuGluCl3 (glutamate-gated chloride channel 3) (Tetranychus urticae, UniProt T1KFH0); assay: two-electrode voltage clamp in Xenopus oocytes at […] (natural agonist)
T1 construct: gene 107363680; homomeric WT TuGluCl3 receptor expressed in Xenopus laevis oocytes
T1 sequence (T1KFH0 36-542): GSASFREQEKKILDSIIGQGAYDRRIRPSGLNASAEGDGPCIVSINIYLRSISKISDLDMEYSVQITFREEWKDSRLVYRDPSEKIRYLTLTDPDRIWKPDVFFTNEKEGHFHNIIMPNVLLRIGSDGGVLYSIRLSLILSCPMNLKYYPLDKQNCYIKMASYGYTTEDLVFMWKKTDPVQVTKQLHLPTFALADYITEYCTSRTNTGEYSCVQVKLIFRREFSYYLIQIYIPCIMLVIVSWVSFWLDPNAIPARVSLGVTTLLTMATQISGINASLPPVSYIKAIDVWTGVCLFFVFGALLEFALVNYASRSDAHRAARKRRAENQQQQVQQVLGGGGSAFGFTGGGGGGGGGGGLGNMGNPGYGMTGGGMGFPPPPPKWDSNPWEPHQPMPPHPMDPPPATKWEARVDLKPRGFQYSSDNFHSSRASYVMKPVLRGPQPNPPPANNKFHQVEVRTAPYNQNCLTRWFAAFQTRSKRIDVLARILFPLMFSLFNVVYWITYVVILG

[2] = target: T2, TuGluCl3 (glutamate-gated chloride channel 3) (Tetranychus urticae, UniProt T1KFH0, G326E); assay: as above
T2 construct: gene 107363680; homomeric TuGluCl3 G326E receptor expressed in Xenopus laevis oocytes

[3] = target: T1, TuGluCl3 (glutamate-gated chloride channel 3); assay: two-electrode voltage clamp in Xenopus oocytes; agonist, also potentiates glutamate currents

SMILES | two-electrode voltage clamp in Xenopus oocytes at 500 μM (natural agonist) [1] | two-electrode voltage clamp in Xenopus oocytes at 500 μM (natural agonist) [2] | EC50 [3] [µM]
N[C@@H](CCC(=O)O)C(=O)O [L-glutamic acid] | both TuGluCl3 receptors showed clear responses to L-Glu | both TuGluCl3 receptors showed clear responses to L-Glu | 
CC(C)OC(=O)C(O)(c1ccc(Br)cc1)c1ccc(Br)cc1 [bromopropylate] |  |  | 3.23
CCOC(=O)C(O)(c1ccc(Cl)cc1)c1ccc(Cl)cc1 [chlorobenzilate] |  |  | 2.78
OC(c1ccc(Cl)cc1)(c1ccc(Cl)cc1)C(Cl)(Cl)Cl [dicofol, 2,2,2-trichloro-1,1-bis(4-chlorophenyl)ethanol] |  |  | 3.58
